Assay results published in US20240139185A1, “COMPOUNDS THAT PARTICIPATE IN COOPERATIVE BINDING AND USES THEREOF” (Revolution Medicines, Inc., priority 2018, published 2024).

Columns and labels:
[1] = molecular target: cyclophilin A (CYPA) (Homo sapiens, UniProt P62937); assay: CYPA-compound binary complex formation by SPR; settings: read-out: CYPA Binding Affinity
Procedure: In order to determine the affinity of compounds of the invention for cyclophilin A (CYPA), we employed surface plasmon resonance binding analysis using the following reagents, instruments and protocol as supplied by the instrument manufacturer.
Reagents and Instrument • 1. Instrument: Biacore S200 (GE Healthcare Life Sciences) • 2. Running buffer: 1×HBS-P+ (1×HBS supplemented with 0.05% Tween20), pH7.4, and 2% DMSO. • 3. Ligand: CypA-Avi • 4. Analyte: Serial dilution of WDB compounds from 50 μM to 0 μM, 2-fold dilution, 10 points (10 mM stock concentration). • 5. Sensor kit: Biotin CAPture Kit (BR28-9202-34, GE Healthcare Life Sciences) • 6. Regeneration buffer: 1 volume of 1 M NaOH and 3 volumes of 8 M guanidine hydrochloride (supplied with CAPture Kit, BR28-9202-34, GE Healthcare Life Sciences)
Experimental Procedure • 1. Capture of CAPreagent: 2 μl/min for 60 seconds. • 2. Immobilization of ligand CypA: Use Fc1 as the reference cell; immobilize CypA at 4 μg/ml using 5 μl/min flowrate on Fc2 (60s), Fc3 (80s) and Fc4 (80s), respectively. • 3. Binding of analytes: Inject WDB compound dilutions sequentially at 50 μl/min for association of 60 seconds. And then let it dissociates in buffer at 50 μl/min for 60 seconds. • 4. Regeneration: 2 injections of regeneration buffer at 30 μl/min for 60 seconds to regenerate the chip surface. • 5. Solvent correction: Run solvent correction at beginning and the end of the run. If run more than 6 compounds, add additional solvent correction every 6 compounds. • 6. Data fitting with built-in Biacore Evaluation Software: Steady-state fitting.

[2] = tested on: pERK in H358 cells; assay: pERK inhibition in H358 cells; assay type: cell-based, human; settings: 4 hours treatment, read-out: Cellular pERK inhibition
Procedure: H358 cells (5500 cells) derived from a human lung cancer were plated in a 96 well plate in media (100 uL, RPMI with 10% FBS). After 24 hours, cells were treated for 4 hours with compound or DMSO. Cells were washed twice with room temperature TBS (200 uL) and fixed for 20 minutes with 4% paraformaldehyde diluted with TBS (150 uL). Cells were washed four times for five minutes with 0.1% TritonX/TBS (150 uL) to permeabilize the membrane. Cells were incubated with TBS blocking buffer (100 uL) at room temperature for 60 minutes. Primary antibody (Phospho-p44/42 MAPK (Erk1/2) (Thr202/Tyr204) (D13.14.4E) XP® Rabbit mAb #4370, Cell Signaling Technology; 1:200) was added, and the cells were incubated overnight at 4 C. The cells were washed four times for five minutes with 0.1% Tween 20/TBS (150 uL). Secondary antibody (IRDye® 800CW Goat-Anti-Rabbit IgG, Li-Cor Biosciences; 1:1000) and DRAQ5™ (Invitrogen; 1:2000) was added, and the cells were incubated for 1 hour at room temperature. The cells were washed four times for five minutes with 0.1% Tween 20/TBS (150 uL) and scanned using the LICOR (700 and 800 nm).

[3] = molecular target: T1, BRAF-GTP-KRAS-G12C complex (Homo sapiens, UniProt P01116+P62937, G12C); assay: KRAS-BRAF complex disruption through competition with CYPA-compound by TR-FRET; settings: biochemical BRAF-KRAS G12C-GTP disruption assay EC50, with CYPA
T1 construct: 50 nM of His6-KRas G12C-GTP (1-169); 500 nM of tagless CypA (1-165)
Procedure: In this example, TR-FRET was used to measure the compound-facilitated disruption of a KRAS-BRAF complex. A mixture of tagless Cyclophilin A, His6-KRAS G12C-GMP-PNP, and GST-BRAF RAS binding domain was added to a 384-well assay plate containing compounds of the invention and incubated for 3 hours. A mixture of Anti-His Eu-W1024 and anti-GST allophycocyanin was then added and the reaction was incubated for an additional 1.5 hours. TR-FRET signal was read on an EnVision microplate reader (Perkin Elmer, Ex 320 nm, Em 665/615 nm). Compounds that facilitate disruption of a KRAS_BRAF complex were identified as those eliciting a decrease in the TR-FRET ratio relative to DMSO control wells. To determine the presenter-dependence of the compound-mediated KRAS-BRAF complex disruption, Cyclophilin A was left out of the initial incubation (see Table 5). To determine G12C specificity of the compound-mediated KRAS-BRAF complex disruption, wild-type KRAS was used instead of G12C KRAS (see Table 5).
Reagents and Instrument • Tagless CYPA; 519 μM in PBS buffer, pH 7.4 • GST BRAF; 110 μM in PBS buffer, pH 7.4 • His6-KRASG12C-GMP-PNP; 50 μM in PBS buffer, pH 7.4 • His6-KRASWT-GMP-PNP; 40 μM in PBS buffer, pH 7.4 • Anti-His Eu-W1024 (LANCE® Eu-W1024; Perkin Elmer) • Anti-GST allophycocyanin (Anti-GST IgG conjugated to SureLight®-Allophycocyanin; Perkin Elmer; Product Number AD0059G) • Test compounds, 10 mM in 100% DMSO • EnVision (Perkin Elmer) • Combi MultiDrop liquid dispenser with 8-channel small volume cassette • 384-well ProxiPlate (black)
Experimental Protocol • 1. Use Mosquito to dispense 100 nL/well of compounds (varying concentration in […]) into 384-well black ProxiPlate to make assay-ready-plate (ARP). • 2. Make assay buffer containing 25 mM Hepes pH 7.3, 100 mM NaCl, 5 mM MgCl2, 0.05% BSA, and 0.002% Tween-20. • 3. Make PRE-MIX A: delivers final concentrations of 50 nM of His6-KRas G12C-GTP (1-169) and 500 nM of tagless CypA (1-165) in assay buffer. • a. For presenter dependence experiments, omit addition of tagless CypA • b. For G12C/wt specificity experiments, substitute His6-KRas WT-GTP (1-169) for His6-KRas G12C-GTP (1-169) • 4. Use MultiDrop Combi to dispense PRE-MIX A into ARP, 7 μl/well. Incubate 3 hr at room temperature. • 5. Make PRE-MIX B: delivers final concentrations of 10 nM of anti-His Eu-W1024 and 50 nM of anti-GST APC. • 6. Use MultiDrop Combi to dispense PRE-MIX B into ARP, 3 μl/well. Shake briefly on Combi and incubate 1.5 hr at room temperature. • 7. Read on EnVision (Ex: 320 nm; Em1: 615 nm; Em2: 665 nm). • 8. Data is processed using Dotmatics. Curves are fit using a 4-parameter non-linear fit to determine the EC50 value for formation of the ternary complex.

| SMILES | Kd [1] [µM] | IC50 [2] [µM] | EC50 [3] [µM] |
| --- | --- | --- | --- |
| CC1COC(=O)C2CCCN(N2)C(=O)C(NC(=O)C(C(C)C)N(C)C(=O)C2CN(C(=O)CCl)C2)Cc2cc(O)cc(c2)-c2ccc3c4c(n(c3c2)C1)COCC4(C)C#N (mixture of isomers) [Compound 62] | 5 to 15 | ≤ 1 | ≤ 0.5 |
| CC1COC(=O)[C@@H]2CCCN(N2)C(=O)[C@@H](NC(=O)[C@H](C(C)C)N(C)C(=O)C2CN(C(=O)CCl)C2)Cc2cc(O)cc(c2)-c2ccc3c(c2)c(cn3CC2COC2)C1 (single isomer, unassigned) [Compound 227] | 5 to 15 | > 10 |  |
| C=CC(=O)N1CCN([C@H](C(=O)N[C@H]2Cc3cc(O)cc(c3)-c3ccc4c(C5CCOCC5)cn(c4c3)CCCOC(=O)[C@@H]3CCCN(N3)C2=O)C(C)C)C1=O [Compound 229, (2S)-2-(3-acryloyl-2-oxoimidazolidin-1-yl)-N-((6^3S,4S)-2^5-hydroxy-5,7-dioxo-1^3-(tetrahydro-2H-pyran-4-yl)-6^1,6^2,6^3,6^4,6^5,6^6-hexahydro-1^1H-8-oxa-1(6,1)-indola-6(1,3)-pyridazina-2(1,3)-benzenacycloundecaphane-4-yl)-3-methylbutanamide] | ≤ 5 | > 10 |  |
| CC(C)[C@@H](C(=O)N[C@H]1Cc2cc(N)cc(c2)-c2ccc3c(C#N)cn(c3c2)CC(C)(C)COC(=O)[C@@H]2CCCN(N2)C1=O)N(C)C(=O)C1CN(C(=O)CCl)C1 [Compound 230, N-((2S)-1-(((6^3S,4S)-2^5-amino-1^3-cyano-10,10-dimethyl-5,7-dioxo-6^1,6^2,6^3,6^4,6^5,6^6-hexahydro-1^1H-8-oxa-1(6,1)-indola-6(1,3)-pyridazina-2(1,3)-benzenacycloundecaphane-4-yl)amino)-3-methyl-1-oxobutan-2-yl)-1-(2-chloroacetyl)-N-methylazetidine-3-carboxamide] |  | > 10 | 0.5 to 5 |
| C=CC(=O)N1CC(C(=O)N(C)[C@H](C(=O)N[C@H]2Cc3cc(O)cc(c3)-c3ccc4c(C5CCN(C)CC5)nn(c4c3)CC(C)(C)COC(=O)[C@@H]3CCCN(N3)C2=O)C(C)C)C1 [Compound 232, 1-acryloyl-N-((2S)-1-(((6^3S,4S)-2^5-hydroxy-10,10-dimethyl-1^3-(1-methylpiperidin-4-yl)-5,7-dioxo-6^1,6^2,6^3,6^4,6^5,6^6-hexahydro-1^1H-8-oxa-1(6,1)-indazola-6(1,3)-pyridazina-2(1,3)-benzenacycloundecaphane-4-yl)amino)-3-methyl-1-oxobutan-2-yl)-N-methylazetidine-3-carboxamide] |  | > 10 | 0.5 to 5 |
| C#Cc1nn2c3cc(ccc13)-c1cc(O)cc(c1)C[C@H](NC(=O)[C@H](C(C)C)N(C)C(=O)C1CN(C(=O)CCl)C1)C(=O)N1CCC[C@H](N1)C(=O)OCC(C)(C)C2 [Compound 233, 1-(2-chloroacetyl)-N-((2S)-1-(((6^3S,4S)-1^3-ethynyl-2^5-hydroxy-10,10-dimethyl-5,7-dioxo-6^1,6^2,6^3,6^4,6^5,6^6-hexahydro-1^1H-8-oxa-1(6,1)-indazola-6(1,3)-pyridazina-2(1,3)-benzenacycloundecaphane-4-yl)amino)-3-methyl-1-oxobutan-2-yl)-N-methylazetidine-3-carboxamide] |  | > 10 | ≤ 0.5 |
| C=CC(=O)N1CCC(C(=O)N(C)C(C(=O)NC2Cc3cc(O)cc(c3)-c3ccc4c(c3)c(cn4C(C)(C)C#N)CC(C)(C)COC(=O)C3CCCN(N3)C2=O)C2CCCCC2)C1 (centres unmarked) [Compound 396] |  | 1 to 10 | > 5 |

Next, values leading:

| Kd [1] [µM] | IC50 [2] [µM] | EC50 [3] [µM] | SMILES |
| --- | --- | --- | --- |
| 5 to 15 | 1 to 10 | ≤ 0.5 | CC(C)C(C(=O)NC1Cc2cc(O)cc(c2)-c2ccc3c(C(C)(C)C#N)cn(c3c2)CC(CF)COC(=O)C2CCCN(N2)C1=O)N(C)C(=O)C1CN(C(=O)CCl)C1 (mixture of isomers) [Compound 34] |
| ≤ 5 | 1 to 10 | ≤ 0.5 | CC1COC(=O)C2CCCN(N2)C(=O)C(NC(=O)C(C(C)C)N(C)C(=O)C2CN(C(=O)CCl)C2)Cc2cc(O)cc(c2)-c2ccc3c4c(n(c3c2)C1)CCC4C#N (mixture of isomers) [Compound 74] |
| ≤ 5 | 1 to 10 |  | CC1COC(=O)[C@@H]2CCCN(N2)C(=O)[C@@H](NC(=O)[C@H](C(C)C)N(C)C(=O)C2CN(C(=O)CCl)C2)Cc2cc(O)cc(c2)-c2ccc3c(c2)c(cn3CC2COC2)C1 (single isomer, unassigned) [Compound 228] |
| ≤ 5 | ≤ 1 |  | CC1COC(=O)C2CCCN(N2)C(=O)C(NC(=O)C(C(C)C)N(C)C(=O)C2CN(C(=O)CCl)C2)Cc2cc(O)cc(c2)-c2ccc3c(-c4ccccc4C#N)cn(c3c2)C1 [Compound 5, 1-(2-chloroacetyl)-N-((2S)-1-(((6^3S,4S,10S)-1^3-(2-cyanophenyl)-2^5-hydroxy-10-methyl-5,7-dioxo-6^1,6^2,6^3,6^4,6^5,6^6-hexahydro-1^1H-8-oxa-1(6,1)-indola-6(1,3)-pyridazina-2(1,3)-benzenacycloundecaphane-4-yl)amino)-3-methyl-1-oxobutan-2-yl)-N-methylazetidine-3-carboxamide] |
|  | 1 to 10 | ≤ 0.5 | CC(C)[C@@H](C(=O)N[C@H]1Cc2cc(O)cc(c2)-c2ccc3c(-c4cccnc4)cn(c3c2)C[C@H](C)COC(=O)[C@@H]2CCCN(N2)C1=O)N(C)C(=O)C1CN(C(=O)CCl)C1 [Compound 51] |
|  | > 10 | ≤ 0.5 | CC(C)[C@@H](C(=O)N[C@H]1Cc2cc(O)cc(c2)-c2ccc3c(Cc4cccnc4)cn(c3c2)C[C@H](C)COC(=O)[C@@H]2CCCN(N2)C1=O)N(C)C(=O)C1CN(C(=O)CCl)C1 [Compound 70] |
